# Assays:
# Type in all cases: in vivo
# [1] = tested on: induced type 2 diabetic mice; assay: Oral glucose tolerance test; conditions: NeoL 2.5, NeoM 5.0, NeoH 10 mg/kg; within 0 to 3 hours after glucose 2 g/kg; vs induction treatment group STZ
# Method: Male ICR mice (19-21 g) were obtained from BioLASCO Taiwan Co., Ltd. The mice were kept in the animal center of Transworld University at a controlled temperature of 22±2° C., relative humidity 55±5%, and with 12 hour light/12 hour dark cycles for 1 week before the experiment. For the induction of type 2 diabetic mice (induction treatment group STZ), Nicotinamide (210 mg/kg b.w.) (Sigma, Saint Louis, Mo., USA), dissolved in saline was intraperitoneally injected into mice. After 15 minutes, the mice were administered with […] (STZ) (Sigma, 180 mg/kg bw, ip injection), which was dissolved in citrate buffer (pH 4.5) before use. The control group received both vehicles. During the experimental period, the animals' food intake and body weight were monitored once a week. In addition, the dosage of the Neoandrographolide (Sigma-Aldrich Chemical Co., Missouri, USA) of the present invention is: NeoL (low dose group of Neoandrographolide): Neoandrographolide 2.5 mg/kg; NeoM (middle dose group of Neoandrographolide): Neoandrographolide 5.0 mg/kg; NeoH (high dose group of Neoandrographolide): Neoandrographolide 10 mg/kg. The above active ingredient was dissolved in Tween 20 and adjusted to a 0.5% methylcellulose (CMC) solution. The blank group (Sham) was normal mice without induction treatment. […]
# [2] = tested on: induced type 2 diabetic mice; assay: Aspartate aminotransferase (AST) assay
# Method: (§1) Male ICR mice (19-21 g) were obtained from BioLASCO Taiwan Co., Ltd. The mice were kept in the animal center of Transworld University at a controlled temperature of 22±2° C., relative humidity 55±5%, and with 12 hour light/12 hour dark cycles for 1 week before the experiment. For the induction of type 2 diabetic mice (induction treatment group STZ), Nicotinamide (210 mg/kg b.w.) (Sigma, Saint Louis, Mo., USA), dissolved in saline was intraperitoneally injected into mice. After 15 minutes, the mice were administered with […] (STZ) (Sigma, 180 mg/kg bw, ip injection), which was dissolved in citrate buffer (pH 4.5) before use. The control group received both vehicles. During the experimental period, the animals' food intake and body weight were monitored once a week. In addition, the dosage of the Neoandrographolide (Sigma-Aldrich Chemical Co., Missouri, USA) of the present invention is: NeoL (low dose group of Neoandrographolide): Neoandrographolide 2.5 mg/kg; NeoM (middle dose group of Neoandrographolide): Neoandrographolide 5.0 mg/kg; NeoH (high dose group of Neoandrographolide): Neoandrographolide 10 mg/kg. The above active ingredient was dissolved in Tween 20 and adjusted to a 0.5% methylcellulose (CMC) solution. The blank group (Sham) was normal mice without induction treatment.
# (§2) After completion of the test, surviving animals were sacrificed; before necropsy, blood samples were collected for serum biochemistry.
# (§3) In this experimental example, the AST index of mice were recorded in a 42-day period after continuous administration for the blank group Sham, the induction treatment group STZ, Neoandrographolide low dose group NeoL (2.5 mg/kg), Neoandrographolide middle dose group NeoM (5.0 mg/kg) and Neoandrographolide high dose group NeoH (10 mg/kg).
# [3] = tested on: induced type 2 diabetic mice; assay: Total cholesterol assay
# Method: (§4) Male ICR mice (19-21 g) were obtained from BioLASCO Taiwan Co., Ltd. The mice were kept in the animal center of Transworld University at a controlled temperature of 22±2° C., relative humidity 55±5%, and with 12 hour light/12 hour dark cycles for 1 week before the experiment. For the induction of type 2 diabetic mice (induction treatment group STZ), Nicotinamide (210 mg/kg b.w.) (Sigma, Saint Louis, Mo., USA), dissolved in saline was intraperitoneally injected into mice. After 15 minutes, the mice were administered with […] (STZ) (Sigma, 180 mg/kg bw, ip injection), which was dissolved in citrate buffer (pH 4.5) before use. The control group received both vehicles. During the experimental period, the animals' food intake and body weight were monitored once a week. […]
# as §3, with “triglyceride values and the total cholesterol in blood” for “AST index”
# [4] = tested on: induced type 2 diabetic mice; assay: Triglyceride assay
# Method: as §1, §2
# as §3, with “triglyceride values and the total cholesterol in blood” for “AST index”
# [5] = tested on: induced type 2 diabetic mice; assay: Fasting blood glucose assay; conditions: NeoL 2.5, NeoM 5.0, NeoH 10 mg/kg; seven days after administration; vs induction treatment group STZ
# Method: as §4
# as §3, with “fasting blood glucose values” for “AST index of mice”, “period” for “period after continuous administration”
# [6] = tested on: induced type 2 diabetic mice; assay: Glycated hemoglobin (HbA1c) assay; conditions: NeoL 2.5, NeoM 5.0, NeoH 10 mg/kg; after 42 days of continuous administration; vs induction treatment group STZ
# Method: as §4
# as §3, with “glycated hemoglobin (HbA1c) values” for “AST index”
# [7] = tested on: induced type 2 diabetic mice; assay: Uric acid assay; conditions: NeoL 2.5, NeoM 5.0, NeoH 10 mg/kg; after 42 days of continuous administration; vs induction treatment group STZ
# Method: as §4
# as §3, with “serum uric acid” for “AST”, “was” for “were”
# [8] = tested on: induced type 2 diabetic mice; assay: Serum creatinine assay; conditions: NeoL 2.5, NeoM 5.0, NeoH 10 mg/kg; after 42 days of continuous administration; vs induction treatment group STZ
# Method: as §4
# as §3, with “serum creatine” for “AST”, “was” for “were”
# [9] = tested on: induced type 2 diabetic mice; assay: Water intake test in induced type 2 diabetic mice; conditions: high dose 10 mg/kg and low dose 2.5 mg/kg; 40-day period; vs induction treatment group STZ
# Method: as §4
# In general, diabetic patients usually have clinical symptoms of “drinking more water.” In this experimental example, the water intake was recorded in a 40-day period for the blank group Sham, the induction treatment group STZ, Neoandrographolide low dose group NeoL (2.5 mg/kg), Neoandrographolide middle dose group NeoM (5.0 mg/kg) and Neoandrographolide high dose group NeoH (10 mg/kg).
# [10] = NeoL 2.5, NeoM 5.0, NeoH 10 mg/kg, after 42 days of continuous administration, vs induction treatment group STZ
smiles,measurement,setting,value
C=C1CC[C@@H]2[C@](C)(CO[C@@H]3O[C@H](CO)[C@@H](O)[C@H](O)[C@H]3O)CCC[C@@]2(C)[C@@H]1CCC1=CCOC1=O [Neoandrographolide],blood glucose levels in oral glucose tolerance test,[1],significantly lower
same,"AST values, low dose group","[2]; NeoL 2.5 mg/kg, 42 days, compared among the three dose groups",most significant reduction
same,AST index,[2]; [10],slightly lower
same,"minimum effective dose, improving liver function (AST)",[2]; judged from the experiment,around 2.5 mg/kg
same,"minimum effective dose, lowering total cholesterol in the blood",[3]; 42 days,2.5 mg/kg
same,total cholesterol values in the blood,[3]; [10],lower
same,dose dependence of triglyceride-lowering effect,"[4]; 2.5 to 10 mg/kg, 42 days",dose-dependent
same,"minimum effective dose, triglyceride-lowering effect",[4]; 42 days,2.5 mg/kg
same,triglyceride values,[4]; [10],lower
same,"triglyceride values, middle and high dose groups","[4]; NeoM 5.0 mg/kg and NeoH 10 mg/kg, 42 days, compared among the three dose groups",lowest triglyceride values
same,fasting blood glucose values,[5],significantly lower
same,HbA1c values,[6],significantly lower
same,serum uric acid index,[7],significantly lower
same,serum creatinine index,[8],significantly lower
same,amount of water intake,[9],significantly reduced

# From patent publication US11318153B2, “Method of using Neoandrographolide for lowering blood sugar, lowering blood lipid, improving liver function and improving renal function” (Bioalpha International Sdn. Bhd., priority 2018, dated 2022)
